US8735414B2 (priority 2009, dated 2014)

Columns and labels:
[1] = tested on: bicistronic HCV replicon (replicon RNA, GenBank Accession No. AJ242654); test: HCV Replicon Assay; type: cell-based; conditions: Hepatitis C virus, 72 h, read-out: Replicon IC50

SMILES	IC50 [1] [nM]	melting point [°C]
CC(C)NS(=O)(=O)c1ccc(-c2c(C#N)c3cc(F)ccc3n2C2CCOC2)nc1 (stereo not shown) [compound 47, 6-[3-cyano-5-fluoro-1-(tetrahydrofuran-3-yl)-1H-indol-2-yl]-N-(propan-2-yl)pyridine-3-sulfonamide]	< 500	185 to 188
C[C@@H](NS(=O)(=O)c1ccc(-c2c(C(N)=O)c3cc(F)c(OC(F)F)cc3n2C2CCCC2)nc1)C(F)(F)F [compound 718, 1-cyclopentyl-6-(difluoromethoxy)-5-fluoro-2-(5-{[(2R)-1,1,1-trifluoropropan-2-yl]sulfamoyl}pyridin-2-yl)-1H-indole-3-carboxamide]	< 500	218 to 220
C[C@H](NS(=O)(=O)c1ccc(-c2c(C#N)c3ccc(OC(F)F)cc3n2C2CCCCC2)nc1)C(F)(F)F [compound 341, 6-[3-cyano-1-cyclohexyl-6-(difluoromethoxy)-1H-indol-2-yl]-N-[(2S)-1,1,1-trifluoropropan-2-yl]pyridine-3-sulfonamide]	< 500	149 to 151
CCc1cc2c(cc1F)c(C(N)=O)c(-c1cnc(NS(=O)(=O)C(C)(C)C)nc1)n2C1CCCCC1 [compound 1036, 2-{2-[(tert-butylsulfonyl)amino]pyrimidin-5-yl}-1-cyclohexyl-6-ethyl-5-fluoro-1H-indole-3-carboxamide]	2000 to 5000	> 300
C[C@@H](NS(=O)(=O)c1ccc(-c2c(C#N)c3cc(F)ccc3n2C2CCC2)nc1)C(F)(F)F [compound 219, 6-(3-cyano-1-cyclobutyl-5-fluoro-1H-indol-2-yl)-N-[(2R)-1,1,1-trifluoropropan-2-yl]pyridine-3-sulfonamide]	< 500	109 to 110
Cc1ccc2c(C#N)c(-c3ncc(S(=O)(=O)NC(C)C)cn3)n(C(C)C)c2c1 [compound 167, 2-[3-cyano-6-methyl-1-(propan-2-yl)-1H-indol-2-yl]-N-(propan-2-yl)pyrimidine-5-sulfonamide]	< 500	205 to 206
CCc1cc2c(cc1F)c(C(N)=O)c(-c1ccc(S(=O)(=O)N[C@@H](C)C(F)(F)F)cn1)n2-c1cccc(F)n1 [compound 995, 6-ethyl-5-fluoro-1-(6-fluoropyridin-2-yl)-2-(5-{[(2S)-1,1,1-trifluoropropan-2-yl]sulfamoyl}pyridin-2-yl)-1H-indole-3-carboxamide]	< 500	230 to 233
C[C@@H](NS(=O)(=O)c1ccc(-c2c(C#N)c3ccc(F)cc3n2C2CCCC2)nc1)C(F)(F)F [compound 218, 6-(3-cyano-1-cyclopentyl-6-fluoro-1H-indol-2-yl)-N-[(2R)-1,1,1-trifluoropropan-2-yl]pyridine-3-sulfonamide]	< 500	141 to 144
CC(C)NS(=O)(=O)c1cnc(-c2c(C#N)c3cc(F)ccc3n2C2CCCC2)nc1 [compound 603, 2-(3-cyano-1-cyclopentyl-5-fluoro-1H-indol-2-yl)-N-(propan-2-yl)pyrimidine-5-sulfonamide]	< 500	217 to 222
Cc1ccc2c(C#N)c(-c3ncc(S(=O)(=O)N[C@@H](C)C(F)(F)F)cn3)n(C3CCCCC3)c2c1 [compound 605, 2-(3-cyano-1-cyclohexyl-6-methyl-1H-indol-2-yl)-N-[(2S)-1,1,1-trifluoropropan-2-yl]pyrimidine-5-sulfonamide]	< 500	257 to 260
Cc1cc2c(cc1F)c(C#N)c(-c1ccc(S(=O)(=O)N[C@@H](C)C(F)(F)F)cn1)n2-c1ccc(C#N)s1 [compound 1033, 6-[3-cyano-1-(5-cyanothiophen-2-yl)-5-fluoro-6-methyl-1H-indol-2-yl]-N-[(2S)-1,1,1-trifluoropropan-2-yl]pyridine-3-sulfonamide]	< 500	182 to 184.6
